Assay results taken from ChEMBL document CHEMBL2057136, “Discovery of MEK/PI3K dual inhibitor via structure-based virtual screening” (Bioorg Med Chem Lett, 2012).

Key:
[1] = target: T1, Dual specificity mitogen-activated protein kinase kinase 1 (Homo sapiens, UniProt Q02750); assay: Inhibition of MEK1 at 10 uM using [gamma32P]ATP by radiometric kinase assay
[2] = target: T1, Dual specificity mitogen-activated protein kinase kinase 1; assay: Inhibition of MEK1 using [gamma32P]ATP by radiometric kinase assay
[3] = target: Phosphatidylinositol 4,5-bisphosphate 3-kinase catalytic subunit alpha isoform (Homo sapiens, UniProt P42336); assay: Inhibition of PI3Kalpha using [gamma32P]ATP by radiometric kinase assay
Chain of Phosphatidylinositol 4,5-bisphosphate 3-kinase catalytic subunit alpha isoform (P42336 whole entry, canonical isoform): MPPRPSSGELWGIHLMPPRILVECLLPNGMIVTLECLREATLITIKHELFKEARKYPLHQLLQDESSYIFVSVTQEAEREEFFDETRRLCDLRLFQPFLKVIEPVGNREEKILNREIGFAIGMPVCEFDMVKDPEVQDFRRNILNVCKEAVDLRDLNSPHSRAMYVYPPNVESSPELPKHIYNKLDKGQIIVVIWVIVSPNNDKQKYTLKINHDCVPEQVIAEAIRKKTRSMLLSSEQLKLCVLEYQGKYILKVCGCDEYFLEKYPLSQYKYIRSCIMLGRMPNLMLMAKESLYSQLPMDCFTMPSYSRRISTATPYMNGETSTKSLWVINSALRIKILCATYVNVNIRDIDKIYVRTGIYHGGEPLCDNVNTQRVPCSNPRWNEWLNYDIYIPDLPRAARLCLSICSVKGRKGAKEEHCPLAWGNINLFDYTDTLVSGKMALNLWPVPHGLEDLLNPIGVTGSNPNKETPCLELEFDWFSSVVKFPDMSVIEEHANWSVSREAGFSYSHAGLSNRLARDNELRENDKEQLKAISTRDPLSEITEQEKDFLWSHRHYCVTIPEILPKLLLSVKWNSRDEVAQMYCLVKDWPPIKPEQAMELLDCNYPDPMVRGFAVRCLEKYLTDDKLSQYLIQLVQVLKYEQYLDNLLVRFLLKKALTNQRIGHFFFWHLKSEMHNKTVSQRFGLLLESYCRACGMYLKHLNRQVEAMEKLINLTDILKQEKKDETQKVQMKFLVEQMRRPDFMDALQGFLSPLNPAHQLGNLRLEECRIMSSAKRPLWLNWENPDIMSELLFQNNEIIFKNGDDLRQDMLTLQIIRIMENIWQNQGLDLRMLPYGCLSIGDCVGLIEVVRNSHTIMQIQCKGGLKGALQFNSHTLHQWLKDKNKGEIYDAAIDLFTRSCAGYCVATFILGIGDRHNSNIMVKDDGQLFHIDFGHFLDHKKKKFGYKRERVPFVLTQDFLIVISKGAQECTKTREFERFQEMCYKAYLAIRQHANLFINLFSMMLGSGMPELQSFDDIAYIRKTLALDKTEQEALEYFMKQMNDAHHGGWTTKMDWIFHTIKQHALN

[4] = target: Dual specificity mitogen-activated protein kinase kinase 2 (Homo sapiens, UniProt P36507); assay: Inhibition of MEK2 using [gamma32P]ATP by radiometric kinase assay
Chain of Dual specificity mitogen-activated protein kinase kinase 2 (P36507 whole entry): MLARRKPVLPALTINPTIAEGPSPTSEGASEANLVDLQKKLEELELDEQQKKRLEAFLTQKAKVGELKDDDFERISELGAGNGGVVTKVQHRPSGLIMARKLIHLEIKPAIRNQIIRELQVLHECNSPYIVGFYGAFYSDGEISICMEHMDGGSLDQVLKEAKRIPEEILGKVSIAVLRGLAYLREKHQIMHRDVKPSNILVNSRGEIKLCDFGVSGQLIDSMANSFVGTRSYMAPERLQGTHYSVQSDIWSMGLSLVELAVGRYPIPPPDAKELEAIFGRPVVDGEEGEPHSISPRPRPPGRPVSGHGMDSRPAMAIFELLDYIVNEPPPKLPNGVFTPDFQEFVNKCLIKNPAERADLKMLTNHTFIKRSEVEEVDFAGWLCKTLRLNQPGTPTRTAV

T1 sequence (Q02750 whole entry): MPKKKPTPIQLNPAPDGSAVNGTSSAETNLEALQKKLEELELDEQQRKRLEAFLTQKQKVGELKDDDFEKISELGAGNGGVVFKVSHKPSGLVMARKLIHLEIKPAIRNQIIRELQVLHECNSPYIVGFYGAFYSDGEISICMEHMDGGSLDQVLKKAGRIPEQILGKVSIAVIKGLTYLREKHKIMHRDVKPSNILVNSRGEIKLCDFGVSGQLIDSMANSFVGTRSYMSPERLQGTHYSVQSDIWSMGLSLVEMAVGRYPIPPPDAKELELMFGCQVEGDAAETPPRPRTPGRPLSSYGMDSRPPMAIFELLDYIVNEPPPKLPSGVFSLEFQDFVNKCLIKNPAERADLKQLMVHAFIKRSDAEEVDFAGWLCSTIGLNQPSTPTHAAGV

inhibition [1]	IC50 [2]	IC50 [3]	IC50 [4]	SMILES
> 30%	12.3 µM	> 30 µM		OCCNc1ncnc2oc(-c3ccccc3)c(-c3ccccc3)c12
> 30%	8.5 µM	10.2 µM		N=C1/C(=C\c2coc3ccccc3c2=O)C(=O)N=C2SC(c3ccc(O)cc3)=NN12
> 30%	23.1 µM	> 30 µM		O=C(O)c1cccc(N2C(=O)/C(=C\c3cnc4ccccc4n3)SC2=S)c1
> 30%	2.2 µM	0.3 µM	1.3 µM	N=C1/C(=C\c2ccc(O)c(O)c2)C(=O)N=C2SC(c3ccc(O)cc3)=NN12
